Data published in US6342368B1, “WD-40-derived peptides and uses thereof” (The Board of Trustees of the Leland Stanford Junior …, priority 1994, dated 2002).
Entries after “also recorded” stand apart in the source; their conditions may differ.

What was measured:
βPKC [1] = target: T1, βPKC (Rattus norvegicus, UniProt P68403); assay: PKC overlay of peptides immobilized on nitrocellulose (slot blot); type: binding; settings: for binding of activated PKC to immobilized peptide: 5 nM rat brain PKC with PS; for binding of activated PKC to immobilized peptide / lowest peptide amount at which activated PKC bound: DG and calcium; for binding of unactivated PKC to immobilized peptide: 5 nM rat brain PKC without PS, DG, calcium; for lowest peptide amount at which activated PKC bound: PKC with PS, 0.5-10.0 μmole peptide applied
T1 construct: All the solutions contained 5 nM rat brain PKC; from tissue; host or cells: rat brain
T1 sequence (P68403 whole entry): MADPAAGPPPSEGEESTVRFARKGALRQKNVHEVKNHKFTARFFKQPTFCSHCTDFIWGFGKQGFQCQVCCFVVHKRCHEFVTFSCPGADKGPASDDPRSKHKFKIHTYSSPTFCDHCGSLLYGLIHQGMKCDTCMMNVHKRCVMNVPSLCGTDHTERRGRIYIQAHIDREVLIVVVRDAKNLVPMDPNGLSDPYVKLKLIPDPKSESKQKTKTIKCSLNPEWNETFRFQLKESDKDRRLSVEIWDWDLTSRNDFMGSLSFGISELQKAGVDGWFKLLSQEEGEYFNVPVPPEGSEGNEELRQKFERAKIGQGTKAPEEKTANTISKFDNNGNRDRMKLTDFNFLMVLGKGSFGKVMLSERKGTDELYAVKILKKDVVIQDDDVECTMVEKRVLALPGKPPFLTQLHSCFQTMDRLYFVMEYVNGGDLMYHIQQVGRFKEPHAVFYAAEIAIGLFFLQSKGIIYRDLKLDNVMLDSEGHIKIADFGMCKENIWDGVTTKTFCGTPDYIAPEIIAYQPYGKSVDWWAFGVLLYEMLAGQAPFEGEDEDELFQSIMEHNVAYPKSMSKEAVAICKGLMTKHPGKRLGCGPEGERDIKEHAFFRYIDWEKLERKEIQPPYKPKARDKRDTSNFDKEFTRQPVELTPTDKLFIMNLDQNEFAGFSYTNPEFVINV
Protocol: The binding of βPKC to peptide I (SEQ ID NO:1), peptide rVI (SEQ ID NO:7) and control peptide (SEQ ID NO:9) was assessed using a PKC overlay assay similar to that described in Example 3. Increasing amounts of peptides (0.5 μmole, 1.0 μmole, 5.0 μmole and 10.0 μmole) suspended in 20 mM NaCl were applied individually onto nitrocellulose using a slot-blot apparatus (Schleicher and Schuell, Keene, N.H.). The nitrocellulose membrane was washed three times, 15 minutes per wash, in peptide overlay buffer and incubated for two hours in peptide overlay block buffer. The membrane was cut into sections and the sections were transferred to different PKC-containing solutions and incubated for 30 minutes at room temperature. All the solutions contained 5 nM rat brain PKC in peptide overlay buffer. Some solutions additionally contained PS, DG, and calcium. The membranes were then washed three times, 15 minutes per wash, in peptide overlay buffer and incubated in peptide overlay block buffer containing anti-βPKC monoclonal antibodies (1:1000 dilution; Seikagaku Kogyo, Tokyo, Japan). After a 16 hr incubation at room temperature, the filters were washed three times, 15 minutes per wash, in peptide overlay buffer.
Binding of PKC was determined using chemiluminescence as described in Example 3, part C. Quantitation of PKC binding was carried out using a “MICRO SCAN” 1000 gel analyzer (Galai Inc., Yokneam, Israel).

PKC = assay: Histone type IIIs phosphorylation by PKC; type: biochemical; settings: absence of PS, DG and calcium; peptide 10 μM
Protocol: Histone type IIIs (Sigma Chemical Company, St. Louis, Mo.) was phosphorylated by PKC (˜10 nM) in the absence (lane 1) and presence of peptide rVI (10 μM) (lanes 2 and 3) and in the presence and absence of DG (0.8 μg/ml), PS (50 μg/ml) and CaCl2 (1 mM) (lane 3). The results are expressed as percentage of control that is the amount of Histone phosphorylation by PKC in the presence of DG (0.8 μg/ml), PS (50 μg/ml) and CaCl2 (1 mM). The results are the average ± SEM of two independent experiments. PKC was first incubated with the peptide rVI (10 μM) for 15 minutes in overlay buffer as described above. Histone type IIIs (40 μg/ml) was added in Tris-HCl (20 mM), MgCl2 (20 mM), ATP (20 μM) and ([γ-^32P]ATP (5 μci/ml) with or without PS (50 μg/ml), DG (0.8 μg/ml) and CaCl2 (1 mM). Histone phosphorylation was determined by autoradiography as above.

[2] = test system: PKC binding to recombinant RACK1; assay: Overlay / overlay-extraction assay: inhibition of PKC binding to recombinant RACK1 by peptides; parameters: species or system rat
Protocol: The variation in the overlay protocol consisted of incubating the putative binding peptides with a mixture of PKC isozymes for 15 minutes at room temperature before the mixture was used to contact the nitrocellulose strips containing immobilized RACK1.
Nitrocellulose strips containing immobilized RACK1, that had been contacted with a solution containing a mixture of PKC isozymes, were washed and the area corresponding to the 36 kDa (RACK1-containing) band was cut out. The pieces (containing PKC/RACK1 complexes) were incubated with sample buffer for 10 minutes at 80° C. The sample buffer and the nitrocellulose pieces were then placed in wells in the PAGE gel and subjected to SDS-PAGE to elute the bound proteins. The gel was blotted onto nitrocellulose and a Western blot analysis was carried out using the mixture of antibodies (specific for PKC α, β, γ, δ, ε and ζ isozymes) described in Example 1 part B. Bound antibodies were detected by ^125I-protein A.
Peptides derived from or homologous to WD-40 repeats of RACK1 were tested for their ability to inhibit PKC binding to recombinant RACK1. Binding of PKC to RACK1 was carried out using a variation of the overlay procedure described in Example 3 part B. In the experimental samples, peptides were incubated with a solution containing a mixture of rat brain PKC isozymes (˜10 nM each) for 15 minutes at room temperature.
Following completion of the modified overlay protocol, the samples were subjected to the overlay-extraction protocol detailed in part B, above.
The results in FIG. 3 show the binding of PKC to RACK1, carried out without (lane 1) or with (lanes 2-4) a preincubation of peptides with PKC. […] Peptide I caused an 81±6% inhibition of PKC binding to recombinant RACK1 as compared with binding in the absence of added peptide (n=3). Lanes 3 and 4 show PKC binding following a preincubation with 10 μM peptide rIII (SEQ ID NO:4) and 10 μM peptide rVI (SEQ ID NO:7), respectively. […] The results shown are representative of three independent experiments.

βPKC [3] = assay: βPKC translocation (soluble vs particulate fraction) in Xenopus oocytes; type: cell-based; settings: peptide 50 μM microinjected; for insulin (hormone)-induced βPKC translocation: 60 min after insulin; for βPKC distribution / translocation in the absence of insulin treatment: untreated oocytes, 60 min
Protocol: Insulin causes the translocation of βPKC, but not other PKC isozymes, from a cytosolic form to a membrane-associated form, as evidenced by the relative levels of PKC in the soluble vs. the particulate fraction of oocyte homogenate. To assess the effects of RACK1 WD-40-derived peptides on insulin-induced PKC translocation, 50 nl of a 20 mM NaCl solution containing the indicated peptides were microinjected into Xenopus oocytes. The oocytes were then homogenized, and the relative amount of PKC in the soluble and particulate fractions was assayed. The protocol followed was a modification of a method described by Smith, et al. (1992).
Batches of 50 oocytes were microinjected with either peptide rVI (SEQ ID NO:7; 50 μM; lanes 3, 4), peptide I (SEQ ID NO:1; 50 μM, lanes 7, 8) or injection solution (NaCl 20 mM, lanes 1,2 and 5,6). Homogenates from each batch were prepared 60 minutes after microinjection (lanes 1-4) or 60 minutes after addition of insulin (lanes 5-8). The homogenates were centrifuged at 10,000 g for 3 minutes, the upper layer (containing fat and yolk) was removed, and the remainder was frozen at −70° C. Prior to use, the samples were thawed, 200 μl homogenization buffer was added and the samples were centrifuged at 100,000 g for 30 minutes at 4° C. The supernatants (soluble fraction) were removed and concentrated to 20 μl using “CENTRICON” concentrators (Amicon,Beverly, Mass.). The pellets (particulate fractions) were dissolved in 20 μl of homogenization buffer. The samples were resolved on an 8% SDS/PAGE gel and blotted onto nitrocellulose. The amount of PKC in each fraction was determined by Western blot using anti-βPKC antibodies (1:1000 dilution; Seikagaku Kogyo, Tokyo, Japan). Bound primary antibodies were detected by chemiluminescence as described in Example 3, part C.

δ and εPKC isozymes = assay: PKC isozyme translocation and degradation in cardiac myocytes; type: cell-based, rat
Protocol: In cardiac myocytes, norepinephrine (NE, 2 μM) causes translocation of δ and εPKC isozymes from the cytosolic to the particulate fraction. […] This peptide-induced translocation was followed by degradation of δ and εPKC isozymes.

[4] = peptide introduced into cardiac myocytes

Substance | binding of activated PKC to immobilized peptide (βPKC [1]) | binding of unactivated PKC to immobilized peptide (βPKC [1]) | lowest peptide amount at which activated PKC bound (βPKC [1]) [µmol] | induction of PKC-mediated histone phosphorylation (PKC) | inhibition of PKC binding to RACK1 (in words) ([2]; 10 μM peptide preincubated with PKC) | insulin (hormone)-induced βPKC translocation (βPKC [3]) | βPKC distribution / translocation in the absence of insulin treatment (βPKC [3]) | NE-induced translocation of δ and εPKC (δ and εPKC isozymes; norepinephrine 2 μM) | degradation of PKC isozymes (δ and εPKC isozymes; [4]) | translocation / distribution of δ and εPKC isozymes in the absence of hormone stimulation (δ and εPKC isozymes; [4]) | inhibition of PKC binding to recombinant RACK1 as compared with binding in the absence of added peptide ([2]; 10 μM peptide preincubated with PKC isozyme mixture 15 min, n=3) [%]
peptide rVI: eight amino acid peptide identical to a segment of RACK1 WD-40 repeat VI (DIINALCF) | bound | did bind | 5 | effective to induce PKC-mediated histone phosphorylation; also recorded: induced histone phosphorylation | inhibit the binding of PKC to RACK1 | augments hormone-induced translocation | induced βPKC translocation |  |  |  | 
peptide I: 15-residue peptide homologous to a sequence in the sixth WD-40 repeat of RACK1; PKC antagonist (KGDYEKILVALCGGN) | bound | did not bind | 5 |  |  | inhibited hormone-induced translocation; also recorded: inhibited insulin-induced βPKC translocation | did not affect βPKC distribution | inhibited | nor does it induce PKC degradation; also recorded: did not cause degradation | does not affect PKC distribution | 81±6
